These results are taken from US20190255073A1, “ESTERS OF 3-POLYAMINE DERIVATIVES OF BILE ACIDS FOR THE TREATMENT OF INFECTIONS” (VIRBAC, priority 2016, published 2019).

One assay concerns C. albicans. Put plainly: Antifungal activity, cascade microdilution, C. albicans. The assay is classed as cell-based, Candida albicans. The conditions noted are these: Candida albicans, 24 h, read-out: IC50 (μg/mL) C. albicans. On the technique in general: Broth dilution looks for growth in wells or tubes with falling amounts of substance.
The test system of assay [1] is P. aeruginosa (1051575). Put plainly: Potentiation of ampicillin activity. The assay is classed as cell-based, Pseudomonas aeruginosa. The settings on record: concentration of compound required with ampicillin 4 μg/mL. Here is the method:
(§1) This method requires the use of a 96-well plate: 100 μL of a liquid culture medium are placed in each well and then seeded with the microbial suspension prepared previously. The required volume to be seeded is calculated for an OD of 0.01, which corresponds to about 5×10^6 bacteria in each well. In this plate, the first line corresponds to a negative control (200 μL of sterile culture medium in each well), the second line corresponds to a positive control (100 μL of sterile culture medium+100 μL of the bacterial suspension), and the third line contains 192 μL of culture medium; 8 μL of compound of formula (I) to be tested are placed in each well. […] 92 μL of bacterial suspension are then added to lines 3 to 8. […] After 24 hours of incubation at 37° C., 40 μL of nitro tetrazolium iodide are added to each well to reveal the presence of live bacteria by staining the medium pink.
(§2) The procedure is identical to that indicated in Example 5 above. […]
(§3) The results are given in table V. They indicate the concentration of compound of formula (I) required to be able to restore the activity of the antibiotic under consideration.

Another assay relates to P. aeruginosa ATCC27853. Put plainly: MIC determination by microplate dilution, P. aeruginosa human strain. The conditions noted are these: Pseudomonas aeruginosa, ATCC27853, Gram-negative, Mueller-Hinton medium, 24 h, 37° C. The format is cell-based, Pseudomonas aeruginosa. In short, it runs like this:
(§4)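 In Mueller-Hinton broth, strains seeded at an OD of 0.01 are exposed to two-fold dilutions of compound (stock 5 mg/mL in DMSO/methanol) for 24 h at 37 °C. Growth is then measured by absorbance at 620 nm.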

The subject of another assay is S. aureus ATCC25923. Put plainly: MIC determination by microplate dilution, S. aureus human strain. The format is cell-based, Staphylococcus aureus. The settings on record: Staphylococcus aureus, ATCC25923, Gram-positive, Mueller-Hinton medium, 24 h, 37° C. A digest of the protocol: as §4
A further assay has as its system S. intermedius (1051997). Put plainly: MIC determination by microplate dilution, S. intermedius animal strain. The format is cell-based, Staphylococcus intermedius. The conditions noted are these: Staphylococcus intermedius, Gram-positive, Mueller-Hinton medium, 24 h, 37° C. In short, it runs like this:
as §4

In assay [2] the test system is P. aeruginosa (1051575). The assay can be described thus: MIC determination by microplate dilution, P. aeruginosa animal strain. The format is cell-based, Pseudomonas aeruginosa. The conditions noted are these: Pseudomonas aeruginosa, Gram-negative, Mueller-Hinton medium, 24 h, 37° C. A digest of the protocol:
as §4

The subject of a further assay is E. faecalis ATCC29212. The assay can be described thus: MIC determination by microplate dilution, E. faecalis human strain. The assay is classed as cell-based, Enterococcus faecalis. The conditions noted are these: Enterococcus faecalis, ATCC29212, Gram-positive, Mueller-Hinton medium, 24 h, 37° C. A digest of the protocol:
as §4

Assay [3] concerns P. aeruginosa (1051575). The assay can be described thus: Potentiation of chloramphenicol activity. The assay is classed as cell-based, Pseudomonas aeruginosa. Here is the method: as §1, §2, §3
The test system of assay [4] is P. aeruginosa (1051575). Put plainly: Potentiation of erythromycin activity. The format is cell-based, Pseudomonas aeruginosa. The settings on record: concentration of compound required with erythromycin 2 μg/mL. Here is the method: This method requires the use of a 96-well plate: 100 μL of a liquid culture medium are placed in each well and then seeded with the microbial suspension prepared previously. The required volume to be seeded is calculated for an OD of 0.01, which corresponds to about 5×10^6 bacteria in each well. In this plate, the first line corresponds to a negative control (200 μL of sterile culture medium in each well), the second line corresponds to a positive control (100 μL of sterile culture medium+100 μL of the bacterial suspension), and the third line contains 192 μL of culture medium; 8 μL of compound of formula (I) to be tested are placed in each well. Thereafter, a cascade dilution is performed from this line. […] (1 mg dissolved in 20 mL) are then added to each well of the lines 3 to 8 to obtain a final antibiotic concentration of 2 μg/mL. 92 μL of bacterial suspension are then added to lines 3 to 8. […] After 24 hours of incubation at 37° C., 40 μL of nitro tetrazolium iodide are added to each well to reveal the presence of live bacteria by staining the medium pink.
The procedure is identical to that indicated in Example 5 above. 8 μL of an antibiotic solution under consideration (1 mg dissolved in 20 mL) are added to obtain a final antibiotic concentration of 2 μg/mL instead of 8 μL of a doxycycline solution.
as §3

The test system of a further assay is S. aureus (340). The assay can be described thus: MIC determination by microplate dilution, S. aureus animal strain. The format is cell-based, Staphylococcus aureus. The settings on record: Staphylococcus aureus, Gram-positive, Mueller-Hinton medium, 24 h, 37° C. In short, it runs like this:
as §4

The subject of the next assay is E. coli ATCC28922. The assay can be described thus: MIC determination by microplate dilution, E. coli human strain. The format is cell-based, Escherichia coli. The settings on record: Escherichia coli, ATCC28922, Gram-negative, Mueller-Hinton medium, 24 h, 37° C. In short, it runs like this: as §4

Values after ≈ are worked out from the molar mass of the structure shown.

Usually MIC stands for the lowest concentration that inhibits growth of the organism. Higher therefore signals a less susceptible organism. As to `CC(C)OC(=O)CC[C@@H](C)[C@H]1CCC2C3C(CC[C@@]21C)[C@@]1(C)CC[C@H](NCCCN(CCCN)CCCN)CC1C[C@H]3O` (stereo partly drawn) [(39), isopropyl 3β-(tris(3-aminopropyl)amine)chenodeoxycholate], in the assay with C. albicans, the IC50 was 4 µg/mL (≈ 6.61 µM). In the assay with P. aeruginosa (1051575) [1], the “MIC P. aeruginosa (1051575), compound + ampicillin” value is 30 µg/mL. For the same compound, the MIC is 28 µg/mL (≈ 46.3 µM) with P. aeruginosa ATCC27853; 7 µg/mL (≈ 11.6 µM) in the assay with S. aureus ATCC25923; 3.5 µg/mL (≈ 5.79 µM) in the assay on S. intermedius (1051997); 28 µg/mL (≈ 46.3 µM) against P. aeruginosa (1051575) [2]; 14 µg/mL (≈ 23.1 µM) against E. faecalis ATCC29212; 7 µg/mL (≈ 11.6 µM) with S. aureus (340). The compound also showed an MIC against E. coli ATCC28922 of 14 µg/mL (≈ 23.1 µM). The results for the “MIC P. aeruginosa (1051575), compound + chloramphenicol” value in the assay with P. aeruginosa (1051575) [3] (concentration of compound required with chloramphenicol 2 μg/mL) and in the assay with P. aeruginosa (1051575) [3] (concentration of compound required with chloramphenicol 4 μg/mL) were 4 µg/mL and 2 µg/mL, respectively. Besides, the “MIC P. aeruginosa (1051575), compound + erythromycin” value with P. aeruginosa (1051575) [4] was 30 µg/mL.
